Test results published in patent US20130184222A1, “[…] ACTIVE COMPOSITIONS AND THEIR METHODS OF USE” (AGIOS PHARMACEUTICALS, INC, priority 2010, published 2013).

Experiments:
U87MG cells = assay: Cellular assay: inhibition of 2-HG production in U87MG cells (LC-MS, 48 hours); assay type: cell-based; details: Homo sapiens, U-87 MG, 2-HG in media by LC-MS
Procedure, shortened: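 HT1080 or U87MG cells (5000/well, DMEM + 10% FBS) seeded overnight, then exposed to compound (0.2% DMSO final) for 48 h; medium 2-HG measured by LC-MS. Viability read by CellTiter-Glo luminescence at 72 h.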

IDH1 R132H = IDH1 R132H (Homo sapiens, UniProt O75874, R132H); assay: In vitro assay for IDH1 R132H inhibitors (NADPH/aKG, resazurin detection); assay type: biochemical; details: Table 4B; 0.2 μg/ml IDH1 R132H, 50 minutes at room temperature; read-out: IC50, IDH1 R132H Inhibition
Procedure, shortened: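 Reaction ran 50 min at room temperature in Tris pH 7.5 buffer with 150 mM NaCl, 10 mM MgCl2 and 0.03% BSA. Mix concentrations were 0.2 μg/ml mutant enzyme, 8 uM NADPH and 2 mM aKG. Detection added 30 μM resazurin, with resorufin fluorescence (Ex544/Em590) measured 5 min later.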

HT1080 cells = assay: Cellular assay: inhibition of 2-HG production in HT1080 cells (LC-MS, 48 hours); assay type: cell-based; details: Homo sapiens, HT-1080, 2-HG in media by LC-MS
Method: Cells (HT1080 or U87MG) were grown in T125 flasks in DMEM containing 10% FBS, 1× penicillin/streptomycin and 500 ug/mL G418 (present in U87MG cells only). They were harvested by trypsin and seeded into 96 well white bottom plates at a density of 5000 cell/well in 100 ul/well in DMEM with 10% FBS. No cells were placed in columns 1 and 12. Cells were incubated overnight at 37° C. in 5% CO2. The next day test compounds were made up at 2× the final concentration and 100 ul were added to each cell well. The final concentration of DMSO was 0.2% and the DMSO control wells were plated in row G. The plates were then placed in the incubator for 48 hours. At 48 hours, 100 ul of media was removed from each well and analyzed by LC-MS for 2-HG concentrations. The cell plate was placed back in the incubator for another 24 hours. At 72 hours post compound addition, 10 mL/plate of Promega Cell Titer Glo reagent was thawed and mixed. The cell plate was removed from the incubator and allowed to equilibrate to room temperature. Then 100 ul of Promega Cell Titer Glo reagent was added to each well of media. The cell plate was then placed on an orbital shaker for 10 minutes and then allowed to sit at room temperature for 20 minutes. The plate was then read for luminescence with an integration time of 500 ms.

Sequence of IDH1 R132H (O75874 whole entry R132H): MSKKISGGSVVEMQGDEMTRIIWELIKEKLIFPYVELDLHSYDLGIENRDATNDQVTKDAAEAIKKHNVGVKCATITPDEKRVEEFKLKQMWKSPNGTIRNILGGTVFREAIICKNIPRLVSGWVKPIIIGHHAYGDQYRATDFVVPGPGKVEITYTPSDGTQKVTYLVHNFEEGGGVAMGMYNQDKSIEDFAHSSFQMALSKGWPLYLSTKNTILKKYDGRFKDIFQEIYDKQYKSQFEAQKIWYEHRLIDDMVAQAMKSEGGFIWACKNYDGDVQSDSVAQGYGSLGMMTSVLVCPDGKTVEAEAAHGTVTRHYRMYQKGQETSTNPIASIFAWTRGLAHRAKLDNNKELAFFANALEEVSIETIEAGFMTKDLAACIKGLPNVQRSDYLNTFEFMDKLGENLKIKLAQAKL

Row | Structure (SMILES) | IC50 (U87MG cells) | IC50 (IDH1 R132H) | IC50 (HT1080 cells)
1 | Cc1ccccc1C(C(=O)NCC1CCCCC1)N(C(=O)Cc1cccs1)c1cccc(F)c1 (stereo not drawn) [Compound 211] | 1 to 5 µM | 0.1 to 1 µM | 1 to 5 µM
2 | CC(=O)Oc1ccc(CC(=O)N(c2cccc(F)c2)C(C(=O)NC2CCCCC2)c2ccccc2C)cc1 (stereo not drawn) [Compound 212] | ≤ 0.25 µM | ≤ 0.1 µM | ≤ 0.25 µM
3 | Cc1ccccc1C(C(=O)NC1CCCCC1)N(Cc1cccs1)C(=O)Cc1c[nH]c2ncccc12 (stereo not drawn) [Compound 213] | 0.25 to 1 µM | ≤ 0.1 µM | 0.25 to 1 µM
4 | CC(=O)Oc1ccc(C(=O)N(c2cccc(F)c2)C(C(=O)NC2CCCCC2)c2ccccc2C)cc1 (stereo not drawn) [Compound 215, Acetic acid 4-[(cyclohexylcarbamoyl-o-tolyl-methyl)-(3-fluoro-phenyl)-carbamoyl]-phenyl ester] | 0.25 to 1 µM | 0.1 to 1 µM | 0.25 to 1 µM
5 | Cc1ccccc1C(C(=O)NC1CCCCC1)N(C(=O)c1ccc(O)cc1)c1cccc(F)c1 (stereo not drawn) [Compound 216] | 0.25 to 1 µM | 0.1 to 1 µM | 1 to 5 µM
6 | Cc1ccccc1C(C(=O)NC1CCCCC1)N(C(=O)Cc1ccc(O)cc1)c1cccc(F)c1 (stereo not drawn) [Compound 217, N-Cyclohexyl-2-{(3-fluoro-phenyl)-[2-(4-hydroxy-phenyl)-acetyl]-amino}-2-o-tolyl-acetamide] | ≤ 0.25 µM | ≤ 0.1 µM | ≤ 0.25 µM
7 | COc1ccccc1NCC(=O)N(c1cccc(F)c1)C(C(=O)NC1CCCCC1)c1ccccc1C (stereo not drawn) [Compound 218] | 0.25 to 1 µM | ≤ 0.1 µM | 0.25 to 1 µM
8 | COc1ccc(CNCC(=O)N(c2cccc(F)c2)C(C(=O)NC2CCCCC2)c2ccccc2C)cc1 (stereo not drawn) [Compound 219] | 1 to 5 µM | 0.1 to 1 µM | 1 to 5 µM
9 | COc1ccccc1CNCC(=O)N(c1cccc(F)c1)C(C(=O)NC1CCCCC1)c1ccccc1C (stereo not drawn) [Compound 220] | 1 to 5 µM | 0.1 to 1 µM | 1 to 5 µM
10 | COc1cccc(CNCC(=O)N(c2cccc(F)c2)C(C(=O)NC2CCCCC2)c2ccccc2C)c1 (stereo not drawn) [Compound 221] | 1 to 5 µM | 0.1 to 1 µM | 1 to 5 µM
11 | Cc1ccccc1C(C(=O)NC1CCCCC1)N(C(=O)COCc1ccccc1F)c1cccc(F)c1 (stereo not drawn) [Compound 222] | 1 to 5 µM | 0.1 to 1 µM | 0.25 to 1 µM
12 | Cc1ccccc1C(C(=O)NC1CCCCC1)N(C(=O)Cn1ccnc1C)c1cccc(-c2cnn(C)c2)c1 (stereo not drawn) [Compound 223] | ≤ 0.25 µM | 0.1 to 1 µM | 0.25 to 1 µM
13 | Cc1ccccc1C(C(=O)NC1CCCCC1)N(C(=O)Cn1c(C)nc2ccccc21)c1ccn(C)n1 (stereo not drawn) [Compound 224] | 0.25 to 1 µM | 0.1 to 1 µM | 0.25 to 1 µM
14 | Cc1ccccc1C(C(=O)NC1CCCCC1)N(C(=O)Cn1ccnc1C)c1cccc(NC(=O)OC(C)(C)C)c1 (stereo not drawn) [Compound 225] | ≤ 0.25 µM | 0.1 to 1 µM | 1 to 5 µM
15 | Cc1ccccc1C(C(=O)NC1CCCCC1)N(C(=O)Cn1ccnc1C)c1cccc(N)c1 (stereo not drawn) [Compound 226] | ≤ 0.25 µM | 0.1 to 1 µM | 1 to 5 µM
16 | Cc1ccccc1C(C(=O)NC1CCCCC1)N(C(=O)CNc1ccc(C#N)cc1)c1cccc(F)c1 (stereo not drawn) [Compound 227] | ≤ 0.25 µM | ≤ 0.1 µM | ≤ 0.25 µM
17 | Cc1ccccc1C(C(=O)NC1CCCCC1)N(Cc1cccs1)C(=O)CNc1ccc(C#N)cc1 (stereo not drawn) [Compound 228] | 0.25 to 1 µM | ≤ 0.1 µM | 0.25 to 1 µM
18 | Cc1ccccc1C(C(=O)NC1CCCCC1)N(C(=O)COCc1ccncc1)c1cccc(F)c1 (stereo not drawn) [Compound 229] | 1 to 5 µM | 0.1 to 1 µM | 0.25 to 1 µM

Row | Structure (SMILES) | IC50 (U87MG cells) | IC50 (IDH1 R132H) | IC50 (HT1080 cells)
19 | Cc1ccccc1C(C(=O)NC1CCCCC1)N(C(=O)COC1CCCC1)c1cccc(F)c1 (stereo not drawn) [Compound 230] | 1 to 5 µM | 0.1 to 1 µM | 1 to 5 µM
20 | Cc1ccccc1C(C(=O)NC1CCCCC1)N(C(=O)Cn1ccnc1C)c1cccc(N2CCOCC2)c1 (stereo not drawn) [Compound 231] | ≤ 0.25 µM | 0.1 to 1 µM | 1 to 5 µM
21 | Cc1ccccc1C(C(=O)NC1CCCCC1)N(C(=O)Cn1ccnc1C)c1cccc(N2CCN(C(=O)OC(C)(C)C)CC2)c1 (stereo not drawn) [Compound 232] | ≤ 0.25 µM | 0.1 to 1 µM | 1 to 5 µM
22 | Cc1ccccc1C(C(=O)NC1CCCCC1)N(C(=O)COCc1cccnc1)c1cccc(F)c1 (stereo not drawn) [Compound 233] | 1 to 5 µM | 0.1 to 1 µM | 0.25 to 1 µM
23 | CC(=O)Nc1cccc(N(C(=O)Cn2ccnc2C)C(C(=O)NC2CCCCC2)c2ccccc2C)c1 (stereo not drawn) [Compound 236] | 1 to 5 µM | 0.1 to 1 µM | > 5 µM
24 | Cc1ccccc1C(C(=O)NC1CCCCC1)N(C(=O)CNc1ccc(F)nc1)c1cccc(F)c1 (stereo not drawn) [Compound 237] | 1 to 5 µM | ≤ 0.1 µM | 0.25 to 1 µM
25 | Cc1ccccc1C(C(=O)NC1CCCCC1)N(C(=O)Cc1c[nH]c2ccccc12)c1ccn(C)n1 (stereo not drawn) [Compound 238] | 1 to 5 µM | 0.1 to 1 µM | 0.25 to 1 µM
26 | Cc1nccn1CC(=O)N(c1cccc(F)c1)[C@H](C(=O)NC1CCCCC1)c1ccccc1 [Compound 239] | ≤ 0.25 µM | 0.1 to 1 µM | 0.25 to 1 µM
27 | Cc1ccccc1C(C(=O)NC1CCCCC1)N(C(=O)Cn1ccc(F)cc1=N)c1cccc(F)c1 (stereo not drawn) [Compound 240] | 1 to 5 µM | ≤ 0.1 µM | 0.25 to 1 µM
28 | COC(=O)Nc1cccc(N(C(=O)Cn2ccnc2C)C(C(=O)NC2CCCCC2)c2ccccc2C)c1 (stereo not drawn) [Compound 241] | 0.25 to 1 µM | 0.1 to 1 µM | 1 to 5 µM
29 | Cc1ccccc1C(C(=O)NC1CCCCC1)N(C(=O)Cc1cn(C)c2ccccc12)c1cccc(F)c1 (stereo not drawn) [Compound 243] | 0.25 to 1 µM | 0.1 to 1 µM | 0.25 to 1 µM
30 | Cc1ccccc1C(C(=O)NC1CCCCC1)N(C(=O)Cc1cn(C)c2ccccc12)c1ccn(C)n1 (stereo not drawn) [Compound 244] | 1 to 5 µM | 0.1 to 1 µM | 0.25 to 1 µM
31 | Cc1ccccc1C(C(=O)NC1CCCCC1)N(C(=O)CN1CCCc2ccccc21)c1ccn(C)n1 (stereo not drawn) [Compound 245] | 1 to 5 µM | 0.1 to 1 µM | 0.25 to 1 µM
32 | Cc1ccccc1C(C(=O)NC1CCCCC1)N(C(=O)Cn1ccnc1C)c1ccn(C)n1 (stereo not drawn) [Compound 246] | 0.25 to 1 µM | 0.1 to 1 µM | 1 to 5 µM
33 | COc1cccc(NCC(=O)N(c2cccc(F)c2)C(C(=O)NC2CCCCC2)c2ccccc2C)c1 (stereo not drawn) [Compound 247] | 0.25 to 1 µM | ≤ 0.1 µM | ≤ 0.25 µM
34 | Cc1ccccc1C(C(=O)NC1CCCCC1)N(C(=O)CN1CCN(C(=O)O[C@H]2CCOC2)CC1)c1cccc(F)c1 (stereo partly drawn) [Compound 248] | 1 to 5 µM | 0.1 to 1 µM | 1 to 5 µM
35 | CCOC(=O)N1CCN(CC(=O)N(c2cccc(F)c2)C(C(=O)NC2CCCCC2)c2ccccc2C)CC1 (stereo not drawn) [Compound 249] | 0.25 to 1 µM | 0.1 to 1 µM | 0.25 to 1 µM
36 | Cc1ccccc1C(C(=O)NC1CCCCC1)N(C(=O)CN1CCN(C(=O)OC(C)C)CC1)c1cccc(F)c1 (stereo not drawn) [Compound 250] | 1 to 5 µM | 0.1 to 1 µM | 1 to 5 µM
